Reference: patent US12661309B2, “Preparation and efficacy of tooth whitening tablet including SHMP” (The Hershey Company, priority 2018, dated 2026)

Legend:
[1] = Stain removal (ΔE whitening index) on pre-stained bovine enamel slabs
Method: Commercially available bovine enamel slabs were purchased from Theremetrics Inc. The slabs were prepared by immersing the enamel specimens in a staining broth containing coffee, tea and gastric mucin and air-drying the specimens. The gastric mucin (glycoprotein) was added to the straining broth to afford pellicle formation on the enamel surface. This mimics the dental pellicle formed by the glycoproteins present in the saliva. The broth immersion and air-drying procedure was repeated several times up to four days to afford a heavily-stained film containing the pellicle, as shown in FIG. 2.
Six treatments were performed with 3 bovine enamel slabs per treatment (2 medium stained and 1 heavy stained). The following treatment regimen was followed. The pre-stained enamel slabs were suspended in aqueous medium using a thin rod in a plastic container. […]
After the treatment, the solution was emptied and the slab was rinsed with DI water and wiped with paper towel. […] The whiteness index was measured using Xrite spectrophotometer (L*a b) at the end of 28 and 56 cycles or treatments. […]
The term ΔE, known as the whitening index value, represents the change in color difference from baseline measurements. The L* a* b* values were measured by Xrite spectrophotometer which was calibrated every time prior use. […] Using the L* a* b* values, ΔE was calculated according to the formula as shown below. […]
The three phosphate buffer solutions (pH 5.8, 7.0, 8.0) were prepared using 0.2M NaH2PO4 and 0.2M Na2HPO4. […] The L* a* b* measurements were measured by Xrite spectrophotometer and digital images were taken at baseline, 28 cycles and at end of 56 cycles.
Artificial saliva was used as the medium for this example. […] The L* a* b* measurements were measured by Xrite spectrophotometer and digital images were taken at baseline, after 28 cycles and after 56 cycles.
Artificial saliva was used as the medium for Example 4. […] The L* a* b* measurements were measured by Xrite spectrophotometer and digital images were taken at baseline, after 28 treatment cycles and after 56 treatment cycles.

[2] = hydrolyze to form orthophosphates; cited from earlier work

Compound: O=P1([O-])OP(=O)([O-])OP(=O)([O-])OP(=O)([O-])OP(=O)([O-])OP(=O)([O-])O1.[Na+].[Na+].[Na+].[Na+].[Na+].[Na+] [Code B, sodium hexametaphosphate]
- stain removal, ingredient only vs tableted forms (Codes H, L & D) ([1]; Example 1, specifically heavy stains): performed better than tableted forms

Compound: O=P1([O-])OP(=O)([O-])OP(=O)([O-])OP(=O)([O-])OP(=O)([O-])OP(=O)([O-])O1.[Na+].[Na+].[Na+].[Na+].[Na+].[Na+] [SHMP, sodium hexametaphosphate]
- relationship between SHMP concentration and stain removal efficacy ΔE values ([1]; Example 3, 0-8% SHMP tablets, medium stained slabs, artificial saliva): linear relationship
- reduction of whitening efficacy ([1]; Example 3, dropping SHMP level in tablet from 8% to 5%, artificial saliva): 32%
- stability in acidic environments [2]: not stable
